Source: PMC11372264, “^61Cu-PSMA–Targeted PET for Prostate Cancer: From Radiotracer Development to First-in-Human Imaging” (Journal of Nuclear Medicine, 2024)
“And” between values parts separate entries of the source, which are not always exact repeats. Equal entries are not always repeated.

Columns and labels:
[1] = system: patient with metastatic prostate cancer; assay: First-in-human PET/CT imaging; format: in vivo; conditions: 105 MBq/32 µg i.v., 3 h after tracer administration
Experimental: [^61Cu]Cu-NODAGA-PSMA-I&T was produced at the Nuclear Medicine Department of the Klinikum Rechts der Isar (Technical University of Munich) for human use. It was applied according to §13.2b of the German pharmaceutical law, and the requirement to obtain consent for the retrospective data analysis was waived. The manufacture of the tracer was performed via an automated process through a GE Healthcare FASTlab 2 module. Details on the production and quality controls are described in the supplemental materials. A dose of 105 MBq/32 µg was administered intravenously to a patient with known metastatic prostate cancer before ^177Lu-labeled PSMA radiopharmaceutical therapy. The patient was coinjected with 10 mg of furosemide (Lasix; Sanofi-Aventis). Imaging was performed 3 h after tracer administration on a Biograph Vision PET/CT scanner (Siemens Healthineers). Images were obtained from the skull to mid-thigh and reconstructed into multiplanar PET, CT, and fused PET/CT images. CT was used for attenuation correction.
FIGURE 4. Administration of [^61Cu]Cu-NODAGA-PSMA-I&T, in person with metastatic castration-resistant prostate cancer with disease progression, after abiraterone and docetaxel therapy before ^177Lu-labeled PSMA radiopharmaceutical therapy. Imaging was performed 3 h after tracer administration. […] Patient has also 1 kidney after left nephrectomy.

[2] = Human dosimetry estimates (OLINDA/EXM version 1.0) from mouse biodistribution; conditions: standard adult man phantom; mouse kinetics assumed same as human
Experimental: Additional biodistribution data were generated in healthy BALB/c mice using [^64Cu]Cu-NODAGA-PSMA-I&T at 1, 4, 12, and 24 h after injection and combined with the data of [^61Cu]Cu-NODAGA-PSMA-I&T at 1 and 4 h after injection. Non–decay-corrected biodistribution data for ^61Cu (t1/2, 3.33 h) were used to generate time–activity curves for [^61Cu]Cu-NODAGA-PSMA-I&T. OLINDA/EXM version 1.0 (Vanderbilt University) was used for the dosimetry estimates, as described in the supplemental materials.

[3] = Lipophilicity: distribution coefficient in 1:1 1-octanol/phosphate-buffered saline at pH 7.4; format: physicochemical
Experimental: The lipophilicity of [^61Cu]Cu-DOTAGA-PSMA-I&T and [^61Cu]Cu-NODAGA-PSMA-I&T was assessed by determining the distribution coefficient in a 1:1 mixture of 1-octanol–to–phosphate-buffered saline at pH 7.4, in comparison with all reference radiotracers. Inhibitory concentration of 50% (IC50) was assessed by competition binding on lymph node carcinoma of the prostate (LNCaP) using ((S)-1-carboxy-5-(4-(-^125I-iodo-benzamido)pentyl)carbamoyl)-L-glutamic acid as the reference radioligand. Cellular uptake and distribution were assessed in LNCaP cells at 5, 15, 30, 60, and 120 min after exposure to the radioligand at 37°C, either alone or in the presence of 10 µM 2-(phosphonomethyl)pentanedioic acid to distinguish between specific and nonspecific uptake.

O=C([O-])CN1CCN(CC(=O)[O-])CCN(C(CCC(=O)N[C@H](Cc2ccc(O)c(I)c2)C(=O)N[C@H](Cc2ccccc2)C(=O)N[C@H](CCCCNC(=O)CCCCCCC(=O)NCCCC[C@H](NC(=O)N[C@@H](CCC(=O)O)C(=O)O)C(=O)O)C(=O)O)C(=O)O)CC1.[61Cu+2] (stereo partly drawn) [[^61Cu]Cu-NODAGA-PSMA-I&T, NODAGA-(l-y)fk(sub-KuE)]
SUVmax, kidney (right) [1]: 57.3 | SUVmax, liver [1]: 6.5 | SUVmax, salivary gland (right parotid gland) [1]: 20.5 | SUVmax, tumor lesion left liver lobe [1]: 23.6 | SUVmax, tumor lesion right lower pubic bone [1]: 154.2 | SUVmax, tumor lesion right scapula [1]: 86.4 | SUVmax, tumor lesion sacral bone [1]: 16.5 | SUVmean, kidney (right) [1]: 37.9 | SUVmean, liver [1]: 3.4 | SUVmean, salivary gland (right parotid gland) [1]: 12.6 | SUVmean, tumor lesion left liver lobe [1]: 11.7 | SUVmean, tumor lesion right lower pubic bone [1]: 83.7 | SUVmean, tumor lesion right scapula [1]: 55.3 | SUVmean, tumor lesion sacral bone [1]: 9.9 | Effective dose [2]: 0.0142 mSv/MBq and 1.42E−02 mSv/MBq | Total absorbed dose, men: Adrenals [2]: 8.39E−02 mGy/MBq | Total absorbed dose, men: Brain [2]: 6.18E−05 mGy/MBq | Total absorbed dose, men: Gallbladder wall [2]: 2.30E−02 mGy/MBq | Total absorbed dose, men: Heart wall [2]: 6.94E−03 mGy/MBq | Total absorbed dose, men: Kidneys [2]: 1.74E+00 mGy/MBq | Total absorbed dose, men: LLI wall [2]: 4.64E−03 mGy/MBq | Total absorbed dose, men: Liver [2]: 2.51E−02 mGy/MBq | Total absorbed dose, men: Lungs [2]: 6.11E−03 mGy/MBq | Total absorbed dose, men: Muscle [2]: 6.00E−03 mGy/MBq | Total absorbed dose, men: Osteogenic cells [2]: 5.31E−03 mGy/MBq | Total absorbed dose, men: Pancreas [2]: 4.83E−02 mGy/MBq | Total absorbed dose, men: Red marrow [2]: 1.11E−02 mGy/MBq | Total absorbed dose, men: Skin [2]: 2.90E−03 mGy/MBq | Total absorbed dose, men: Small intestine [2]: 3.79E−02 mGy/MBq | Total absorbed dose, men: Spleen [2]: 7.37E−02 mGy/MBq | Total absorbed dose, men: Stomach wall [2]: 1.71E−02 mGy/MBq | Total absorbed dose, men: Testes [2]: 5.39E−04 mGy/MBq | Total absorbed dose, men: Thymus [2]: 1.67E−03 mGy/MBq | Total absorbed dose, men: Thyroid [2]: 4.99E−04 mGy/MBq | Total absorbed dose, men: Total body [2]: 1.38E−02 mGy/MBq | Total absorbed dose, men: ULI wall [2]: 1.43E−02 mGy/MBq | Total absorbed dose, men: Urinary bladder wall [2]: 2.06E−03 mGy/MBq | logDpH7.4 [3]: −2.95 ± 0.08
